{"source": "patent US9403841B2", "about": "“Phragamalin limonoids for the treatment of sexual dysfunction” (DICOTYLEDON AB, priority 2012, dated 2016)", "key": {"[1]": {"test_system": "male mice", "details": "see WO 2008/145996; cited from earlier work"}, "[2]": {"test_system": "male mice", "assay": "Sexual behavior test: number of mounts of male mice on sexually receptive female mice during one hour", "format": "in vivo", "description": "A “sexually enhancing effect” is defined herein as the effect being observable as an at least 50% increase, more preferably at least 75% increase, in the number of mounts of sexually naive male mice onto sexually receptive female mice (both preferably being of 8 to 10 weeks of age), after a compound has been administered (orally or sub-cutaneously) to the male mice, the male mice are thereafter, each one separately, being introduced to a sexually receptive female mouse; the observed number of mounts being compared with the number of mounts for control male mice (i.e. control mice being male mice of the same age and strain as the treated ones, but which were not administered the compound but otherwise handled in the same way as the treated mice). The observation period shall be 1 h. It is further required that the number of male mice in each one of the treated and non-treated groups amount to at least three, more preferably to at least four, even more preferably to at least five, and most preferably to at least six in each group for the test to be valid; the average number of mounts for the non treated (average_mount_control) and treated (average_mount_treated) during the 1 h observation period are then calculated and the percent increase (Effect) is then being computed as:\nMice of 9 weeks age weighing 30±2 g were used throughout the study. They were all sexually unskilled. At 4 weeks of age they had been separated from their parents and males and females had been placed in separated cages. The mice were fed with pellets enriched with proteins and lipids.\nPrior to the tests, male and female mice received specific treatments, as follows: […]\nAt 3.00 pm, a female mouse was introduced into each cage hosting a male mouse. The number of mounts of the male mouse, defined as a tentative of lateral or dorsal mounting on the female mouse with or without penis intromission, was then counted during a one-hour observation period and used as a simple measure of sexual behavior activity."}}, "data": [{"compound": "COC(=O)CC1C2(C)CC34OC5(C)OC67C(CC(=O)OC6C3(OC(=O)C(C)C)C2OC(=O)C(C)C)C(C)(C(=O)c2ccoc2)CCC7(O5)C14C", "note": "(stereo not shown) [Compound R306]", "values": [{"measurement": "potency to induce a sexual enhancing effect (comparison)", "setting": "[1]", "value": "more potent than R310"}]}, {"compound": "COC(=O)CC1C2(C)CC34OC5(C)OC67C(CC(=O)OC6C3(O)C2OC(C)=O)C(C)(C(OC(=O)C(F)(F)F)c2ccoc2)CCC7(O5)C14C", "note": "(stereo not shown) [GL-1203]", "values": [{"measurement": "dose at which a clear and significant increase in the mounting frequency was seen (only at this dose)", "setting": "[2]; subcutaneous in olive oil for three consecutive days, doses tested 0.04, 0.4, 4 mg/kg", "value": 4, "unit": "mg/kg"}]}, {"compound": "COC(=O)CC1C2(C)CC34OC5(C)OC67C(CC(=O)OC6C3(O)C2OC(=O)C(C)C)C(C)(C(=O)c2ccoc2)CCC7(O5)C14C", "note": "(stereo not shown) [SAE5]", "values": [{"measurement": "dose at which clear and significant increases in number of mounts were seen already", "setting": "[2]; oral in olive oil for three consecutive days, doses tested 0.004-4 mg/kg", "value": 0.04, "unit": "mg/kg"}, {"measurement": "maximum number of mounts over the one hour observation period (average)", "setting": "[2]; oral, 4 mg/kg for three consecutive days, D-4", "value": 37, "unit": "mounts"}]}]}
